Reference: patent publication US20250057864A1, “COMPOSITION FOR IMPROVING EXERCISE PERFORMANCE COMPRISING GYPENOSIDE COMPOUND AS ACTIVE INGREDIENT” (BTC CORPORATION, priority 2022, published 2025)

Legend:
[1] = system: ICR mice; assay: Blood biochemistry (serum analysis) at end of test; assay type: in vivo
Procedure: After an acclimatization period of 1 week, healthy animals were selected and divided into 6 groups according to the randomized block design. […] Each test group consisted of 10 animals.
Before sacrificing, the experimental animal was anesthetized using an anesthetic prepared by dilution of tribromoethanol with tertiary amyl alcohol and blood was taken from the eye socket. The blood was placed in a serum-separating tube (Becton Dickinson) and left at room temperature for 30 minutes, centrifuged at 5,000 rpm for 10 minutes to separate the serum, and kept at −70° C. until analysis.
The contents of glucose, triglycerides (TG), total cholesterol (CHOL), LDL-cholesterol (LDL-CHOL), HDL-cholesterol (HDL-CHOL), blood urea nitrogen (BUN) and creatinine (CREA) in the serum, and the activities of creatine kinase (CK), lactate dehydrogenase (LDH), alanine aminotransferase (ALT), aspartate aminotransferase (AST) and alkaline phosphatase (ALP) were measured using a blood biochemistry analyzer (KoneLab 20 XT, Thermo Fisher Scientific).

[2] = system: gastrocnemius muscle (GA); assay: Glycogen content in muscle (gastrocnemius muscle, GA); assay type: in vivo, ICR mice; details: 6 weeks
Procedure: After an acclimatization period of 1 week, healthy animals were selected and divided into 6 groups according to the randomized block design. The animals were divided into (G1) a non-exercise control group, (G2) a non-exercise+7 mg/kg body weight (BW) Example 1 group, (G3) a non-exercise+7 mg/kg BW Example 2 group, (G4) a non-exercise+7 mg/kg BW Example 3 group, (G5) a non-exercise+7 mg/kg BW Example 4 group, (G6) an exercise control group, (G7) an exercise+7 mg/kg BW Example 1 group, (G8) an exercise+7 mg/kg BW Example 2 group, (G9) an exercise+7 mg/kg BW Example 3 group, (G10) an exercise+7 mg/kg BW Example 4 group, and (G11) an exercise+75 mg/kg BW Cr dose group. Each test group consisted of 10 animals.
A muscle tissue fluid was prepared to measure glycogen content and enzymatic activity in the muscle tissue. 1 mL of PBS was added to the extracted quadriceps femoris muscle (QF), gastrocnemius muscle (GA), soleus muscle (SOL) and extensor digitorum longus muscle (EDL), and the skeletal muscles were homogenized with a homogenizer. The homogenized solution was centrifuged at 5,000 rpm for 10 minutes and then used as a muscle tissue fluid. The amount of proteins in the muscle tissue was measured using a BCA protein assay kit (Thermo Scientific).
The glycogen content in the liver and skeletal muscle (GA) was measured using a glycogen assay kit according to the method presented by the manufacturer (Abcam).
Accordingly, the glycogen content in the muscle (GA) collected at the end of the test was measured.

[3] = system: p-AMPK, p-Sirt1, p-p38, p-Nrf2 in C2C12 cells; assay: Western blot of proteins related with PGC-1α activation in C2C12 cells; assay type: cell-based, mice; details: C2C12, 0.36 μg/mL (Cr 5 μg/mL); for Protein expression level p-AMPK / Protein expression level p-Nrf2 / Protein expression level p-Sirt1 / Protein expression level p-p38: 7 days; for p-AMPK/AMPK ratio / p-Nrf2/Nrf2 ratio / p-Sirt1/Sirt1 ratio / p-p38/p38 ratio: control G1 = 1.00
Procedure: (§1) C2C12 cells were dispensed into a 6-well plate at 2×10^5 cells/well and stabilized for 24 hours. In order to investigate the effect of each test substance on muscle cell differentiation, each test substance was added to the myocyte differentiation medium. The cells were cultured for 4 days (mRNA analysis) or 7 days (protein analysis) after exchanging the cell culture medium with the myocyte differentiation medium treated with each test substance, as shown in Table 2.
C2C12 cells were dispensed into a 6-well plate at 2×10^5 cells/well and stabilized for 24 hours. The cells were cultured for 7 days after exchanging the culture medium with a myocyte differentiation medium containing the test substance. After the induction of differentiation for 7 days, the cells were homogenized by adding a lysis buffer (20 mmol/L HEPES, pH 7.5, 150 mmol/L NaCl, 1% Triton X-100, 1 mmol/L EDTA, 1 mmol/L EGTA, 100 mmol/L NaF, 10 mmol/L sodium pyrophosphate, 1 mmol/L Na3VO4, 20 μg/mL aprotinin, 10 μg/mL antipain, 10 μg/mL leupeptin, 80 μg/mL benzamidine HCl, 0.2 mmol/L PMSF) and a total cell lysate was obtained through centrifugation. The protein quantity of the total cell lysate was measured using a BCA protein assay kit (Thermo Scientific). The total cell lysate (50 μg) was separated by 10% sodium dodecyl sulfate polyacrylamide gel electrophoresis (SDS-PAGE) and then transferred to a polyvinylidene difluoride membrane (Milipore). The membrane was blocked for 1 hour in 5% skim milk-TBST (20 mmol/L Tris·HCl, pH 7.5, 150 mmol/L NaCl, 0.1% Tween 20) and then incubated for 16 hours at 4° C. or for 1 hour at room temperature after adding antibodies. Thereafter, horseradish peroxidase (HRP)-linked anti-rabbit IgG or HRP-linked anti-mouse IgG was added and the mixture was stirred for 1 hour. The detected protein bands were visualized by enhanced chemiluminescence using a Luminata™ Forte Western HRP substrate (Millipore). The level of protein expression was quantified using the ImageQuant™ LAS 500 imaging system (GE Healthcare Bio-Sciences AB).
The result of western blot analysis conducted using the total cell lysate obtained by treating with the test substance to investigate the effect of the test substance on the changes in proteins associated with PGC-1α activation is shown in Table 6.
Based on the western blot analysis result, the activity of each protein was evaluated from the ratio of activation.

[4] = system: TFam, CPT1-β, mtDNA in C2C12 cells; assay: mRNA expression related with mitochondrial replication in C2C12 cells (real-time RT-PCR); assay type: cell-based, mice; details: C2C12, 0.36 μg/mL (Cr 5 μg/mL), control G1 = 1.00
Procedure: as §1
C2C12 cells were dispensed into a 6-well plate at 2×10^5 cells/well and stabilized for 24 hours. The cells were cultured for 2 or 4 days after replacing the cell culture with a myocyte differentiation medium containing the test substance. After collecting the cells, total RNA was isolated using an RNeasy Plus Mini kit (QIAGEN), and quantified using a micro-volume spectrophotometer (BioSpec-nano, Shimadzu). RNAs with an OD260/280 value greater than 1.8 were used for experiment.
After obtaining cDNA from the total RNA (2 μg) using a HyperScript™ RT master mix kit (GeneAll Biotechnology), real-time PCR was performed using a Rotor-Gene 300 PCR kit (Corbett Research) and a Rotor-Gene™ SYBR Green kit (QIAGEN). Quantitative analysis of the gene expression was performed using the Rotor-Gene 6000 Series System Software program (Corbett Research).
The effect of the treatment of C2C12 cells with the test substances on the mRNA expression of mtDNA, Tfam and CPT-1β associated with mitochondrial replication was investigated.

[5] = serum, treadmill exercise, 7 mg/kg BW (Cr 75 mg/kg BW), 6 weeks
[6] = treadmill exercise, 7 mg/kg BW (Cr 75 mg/kg BW)
[7] = serum, non-exercise, 7 mg/kg BW, 6 weeks

Compound	CREA [1, 5] [mg/dL]	Glycogen content in 1 mg of GA [2, 6]	Total glycogen content in GA [2, 6]	Protein expression level p-AMPK [3]	Protein expression level p-Nrf2 [3]	Protein expression level p-Sirt1 [3]	Protein expression level p-p38 [3]	p-AMPK/AMPK ratio [3]	p-Nrf2/Nrf2 ratio [3]	p-Sirt1/Sirt1 ratio [3]	p-p38/p38 ratio [3]	mRNA expression CPT1-β [4]	mRNA expression Tfam [4]	also measured
CN(CC(=O)O)C(=N)N.O [Cr, Creatine monohydrate, reference compound]	0.363	3.32 ± 0.21^+ μg/mg GA	1350.5 ± 73.7^+ μg/GA	104.6 ± 14.4 % of control group	116.2 ± 11.4 % of control group	114.0 ± 11.1 % of control group	151.5 ± 41.0 % of control group	1.09 ± 0.13	1.20 ± 0.26	1.11 ± 0.10	1.15 ± 0.29	0.93 ± 0.20	0.48 ± 0.07	BUN [1, 5]: 7.84 ± 0.47 mg/dL; CK [1, 5]: 521.5 U/L; LDH [1, 5]: 1,169 U/L; Lactate [1, 5]: 5.30 ± 0.41^++ μmol/L
CC(C)=CCC[C@](C)(O)C1CC[C@]2(C)C1[C@H](O)CC1[C@@]3(C)C[C@@H](O)C(OC4OC(CO)C(O)C(O)C4OC4OC(CO)C(O)C(O)C4O)C(C)(C)C3CC[C@]12C (some centres unmarked) [Example 1, Gypenoside L]	0.348	3.38 ± 0.12^+ μg/mg GA	1404.4 ± 83.3^+ μg/GA	117.7 ± 7.2 % of control group	135.1 ± 1.6 % of control group	143.4 ± 5.6 % of control group	133.1 ± 7.1 % of control group	1.27 ± 0.25	1.50 ± 0.11	1.38 ± 0.06	1.27 ± 0.07	1.83 ± 0.41	0.91 ± 0.10	BUN ([1]; 7 mg/kg, 1008 h): 7.10 ± 0.40 mg/dL; CK ([1]; 7 mg/kg, 1008 h): 471.7 U/L; LDH ([1]; 7 mg/kg, 1008 h): 1,198 U/L; BUN [1, 7]: 7.54 ± 0.47 mg/dL; CK [1, 7]: 416.7 U/L; CREA [1, 7]: 0.312 mg/dL; LDH [1, 7]: 894 U/L; Lactate [1, 7]: 5.15 ± 0.30 µmol/L; Glycogen content in 1 mg of GA ([2]; non-exercise, 7 mg/kg BW): 3.56 ± 0.15 μg/mg GA; Total glycogen content in GA ([2]; non-exercise, 7 mg/kg BW): 1442.1 ± 76.2 μg/GA; mRNA expression mtDNA [4]: 1.29 ± 0.41
